From PubChem BioAssay (NCI)
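How tested: cells in 96-well plates exposed to compound for 48 hours at five concentrations. TGI marks complete inhibition of growth.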

Columns and labels:
Test in all cases: inhibition of tumour cell growth, NCI panel, 48 h
786-0 renal = test system: 786-0 renal
SF-268 CNS = test system: SF-268 CNS
UO-31 renal = test system: UO-31 renal
LOX IMVI melanoma = test system: LOX IMVI melanoma
M19-MEL melanoma = test system: M19-MEL melanoma
M14 melanoma = test system: M14 melanoma
K-562 leukemia = test system: K-562 leukemia
HCT-116 colon = test system: HCT-116 colon
SN12C renal = test system: SN12C renal
OVCAR-4 ovarian = test system: OVCAR-4 ovarian
IGROV1 ovarian = test system: IGROV1 ovarian
SK-MEL-5 melanoma = test system: SK-MEL-5 melanoma
OVCAR-8 ovarian = test system: OVCAR-8 ovarian
U251 CNS = test system: U251 CNS
MALME-3M melanoma = test system: MALME-3M melanoma
CCRF-CEM leukemia = test system: CCRF-CEM leukemia
UACC-257 melanoma = test system: UACC-257 melanoma
NCI-H23 lung = test system: NCI-H23 lung
A549 NSCLC = test system: A549 NSCLC
OVCAR-3 ovarian = test system: OVCAR-3 ovarian
NCI-H226 lung = test system: NCI-H226 lung
DMS 273 small cell lung = test system: DMS 273 small cell lung
KM20L2 colon = test system: KM20L2 colon
EKVX NSCLC = test system: EKVX NSCLC
RPMI-8226 leukemia = test system: RPMI-8226 leukemia
UACC-62 melanoma = test system: UACC-62 melanoma
SK-MEL-28 melanoma = test system: SK-MEL-28 melanoma
HOP-92 NSCLC = test system: HOP-92 NSCLC
HCC-2998 colon = test system: HCC-2998 colon
SR leukemia = test system: SR leukemia
NCI-H522 lung = test system: NCI-H522 lung
HCT-15 colon = test system: HCT-15 colon
SF-539 CNS = test system: SF-539 CNS
HT29 colon = test system: HT29 colon
ACHN renal = test system: ACHN renal
SW-620 colon = test system: SW-620 colon
SK-OV-3 ovarian = test system: SK-OV-3 ovarian
LXFL 529 NSCLC = test system: LXFL 529 NSCLC
HL-60(TB) leukemia = test system: HL-60(TB) leukemia
HOP-62 NSCLC = test system: HOP-62 NSCLC
SNB-19 CNS = test system: SNB-19 CNS
COLO 205 colon = test system: COLO 205 colon
TK-10 renal = test system: TK-10 renal
OVCAR-5 ovarian = test system: OVCAR-5 ovarian
KM12 colon = test system: KM12 colon
MOLT-4 leukemia = test system: MOLT-4 leukemia
CAKI-1 renal = test system: CAKI-1 renal
SK-MEL-2 melanoma = test system: SK-MEL-2 melanoma
NCI-H460 lung = test system: NCI-H460 lung
SF-295 CNS = test system: SF-295 CNS
SNB-78 CNS = test system: SNB-78 CNS
DMS 114 small cell lung = test system: DMS 114 small cell lung
A498 renal = test system: A498 renal
SNB-75 CNS = test system: SNB-75 CNS
DLD-1 colon = test system: DLD-1 colon
RXF 393 renal = test system: RXF 393 renal

Measured: TGI

N#Cc1ccc(C(C2C(=O)NC(=O)NC2=O)C2C(=O)NC(=O)NC2=O)cc1
not listed: SNB-78 CNS | DMS 114 small cell lung | A498 renal | SNB-75 CNS | DLD-1 colon | RXF 393 renal
> 100 µM: all other assays above

COC1=CC(=O)OC(/C=C(C)/C=C/C2=C(C)CCCC2(C)C)C1 (configuration not stated)
not listed: LOX IMVI melanoma | RPMI-8226 leukemia | HCT-15 colon | COLO 205 colon
> 100 µM: all other assays above
